Reference: PubChem BioAssay AID1745844 (Carcinogenic Potency Database (CPDB), 2022)
Calls of active or inactive are those of the source. How the calls were made is not given here.

Tested on: rodent lifetime carcinogenesis bioassay, tumor incidence TD50
Test: chronic cancer bioassays in animals – CPDB, compiled studies (AID 1745844)

SMILES: C=C(C)CCl
- TD50 (mouse, strain B6C3F1, females, by gavage, site: any site (literature study), lesion: several types, types named in the paper, dosed 103 weeks, study length 105 weeks): 149 mg/kg/day
- TD50 (mouse, strain B6C3F1, females, by gavage, site: forestomach, lesion: squamous-cell carcinoma + squamous-cell papilloma, dosed 103 weeks, study length 105 weeks): 82.3 mg/kg/day
- TD50 (mouse, strain B6C3F1, females, by gavage, site: forestomach, lesion: squamous-cell papilloma, dosed 103 weeks, study length 105 weeks): 87.7 mg/kg/day
- TD50 (mouse, strain B6C3F1, females, by gavage, site: lung, lesion: alveolar/bronchiolar adenoma + alveolar/bronchiolar carcinoma, dosed 103 weeks, study length 105 weeks): 5180 mg/kg/day
- TD50 (mouse, strain B6C3F1, males, by gavage, site: any site (literature study), lesion: several types, types named in the paper, dosed 103 weeks, study length 105 weeks): 402 mg/kg/day
- TD50 (mouse, strain B6C3F1, males, by gavage, site: forestomach, lesion: squamous-cell carcinoma + squamous-cell papilloma, dosed 103 weeks, study length 105 weeks): 73.5 mg/kg/day
- TD50 (mouse, strain B6C3F1, males, by gavage, site: forestomach, lesion: squamous-cell carcinoma, dosed 103 weeks, study length 105 weeks): 432 mg/kg/day
- TD50 (mouse, strain B6C3F1, males, by gavage, site: forestomach, lesion: squamous-cell papilloma, dosed 103 weeks, study length 105 weeks): 96.2 mg/kg/day
- TD50 (mouse, strain BDF1, females, inhaled, site: Harderian gland, lesion: adenoma, dosed 104 weeks, study length 104 weeks): 665 mg/kg/day
- TD50 (mouse, strain BDF1, females, inhaled, site: forestomach, lesion: squamous-cell papilloma, dosed 104 weeks, study length 104 weeks): 1850 mg/kg/day
- TD50 (mouse, strain BDF1, females, inhaled, site: liver, lesion: hepatocellular carcinoma, dosed 104 weeks, study length 104 weeks): 60000 mg/kg/day
- TD50 (mouse, strain BDF1, females, inhaled, site: lung, lesion: alveolar/bronchiolar carcinoma, dosed 104 weeks, study length 104 weeks): 6750 mg/kg/day
- TD50 (mouse, strain BDF1, males, inhaled, site: forestomach, lesion: squamous-cell carcinoma, dosed 104 weeks, study length 104 weeks): 11500 mg/kg/day
- TD50 (mouse, strain BDF1, males, inhaled, site: forestomach, lesion: squamous-cell papilloma, dosed 104 weeks, study length 104 weeks): 2040 mg/kg/day
- TD50 (mouse, strain BDF1, males, inhaled, site: lung, lesion: alveolar/bronchiolar adenoma, dosed 104 weeks, study length 104 weeks): 1020 mg/kg/day
- TD50 (mouse, strain BDF1, males, inhaled, site: lung, lesion: alveolar/bronchiolar carcinoma, dosed 104 weeks, study length 104 weeks): 1570 mg/kg/day
- TD50 (rat, strain Fischer 344, females, by gavage, site: any site (literature study), lesion: several types, types named in the paper, dosed 103 weeks, study length 105 weeks): 323 mg/kg/day
- TD50 (rat, strain Fischer 344, females, by gavage, site: forestomach, lesion: papilloma, NOS, dosed 103 weeks, study length 105 weeks): 320 mg/kg/day
- TD50 (rat, strain Fischer 344, females, by gavage, site: subcutaneous tissue, lesion: fibroma, dosed 103 weeks, study length 105 weeks): 524 mg/kg/day
- TD50 (rat, strain Fischer 344, males, by gavage, site: any site (literature study), lesion: several types, types named in the paper, dosed 103 weeks, study length 105 weeks): 109 mg/kg/day
- TD50 (rat, strain Fischer 344, males, by gavage, site: forestomach, lesion: papilloma, NOS, dosed 103 weeks, study length 105 weeks): 68.7 mg/kg/day
- TD50 (rat, strain Fischer 344, males, by gavage, site: liver, lesion: hepatocellular adenoma + hepatocellular carcinoma + neoplastic nodule, dosed 103 weeks, study length 105 weeks): 714 mg/kg/day
- TD50 (rat, strain Fischer 344, males, by gavage, site: testis, lesion: interstitial-cell tumor, dosed 103 weeks, study length 105 weeks): 54 mg/kg/day

SMILES: CCOc1nc2cccc(C(=O)OC(C)OC(=O)OC3CCCCC3)c2n1Cc1ccc(-c2ccccc2-c2nn[nH]n2)cc1 (centres undefined)
- TD50 (rat, strain Fischer 344/Jcl, females, in feed, site: any site (literature study), lesion: several types, types named in the paper, dosed 104 weeks, study length 104 weeks): 11200 mg/kg/day (inactive)
- carcinogen call (rat, strain Fischer 344/Jcl, females, in feed, site: liver, lesion: hepatocellular adenoma, dosed 104 weeks, study length 104 weeks): negative (inactive)
- carcinogen call (rat, strain Fischer 344/Jcl, males, in feed, site: any site (literature study), lesion: several types, types named in the paper, dosed 104 weeks, study length 104 weeks): negative (inactive)
- carcinogen call (rat, strain Fischer 344/Jcl, males, in feed, site: liver, lesion: hepatocellular adenoma, dosed 104 weeks, study length 104 weeks): negative (inactive)

SMILES: CN=C(N)N
- TD50 (rat, strain Wistar, males, in feed, site: liver, lesion: hemangioma, dosed 68 weeks, study length 68 weeks): 84 mg/kg/day

SMILES: CCC[CH2][Sn]([CH2]CCC)([CH2]CCC)[O][Sn]([CH2]CCC)([CH2]CCC)[CH2]CCC
- TD50 (rat, strain Wistar, females, in feed, site: adrenal medulla, lesion: pheochromocytoma, dosed 106 weeks, study length 106 weeks): 1.79 mg/kg/day
- TD50 (rat, strain Wistar, females, in feed, site: pituitary gland, anterior, lesion: one or several types, types not named, dosed 106 weeks, study length 106 weeks): 3.73 mg/kg/day
- TD50 (rat, strain Wistar, males, in feed, site: adrenal medulla, lesion: pheochromocytoma, dosed 106 weeks, study length 106 weeks): 1.93 mg/kg/day
- TD50 (rat, strain Wistar, males, in feed, site: pituitary gland, anterior, lesion: one or several types, types not named, dosed 106 weeks, study length 106 weeks): 1.9 mg/kg/day

SMILES: NNc1ccc(C(=O)O)cc1
- TD50 (mouse, strain Swiss albino, females, in drinking water, site: aorta and large arteries, lesion: leiomyoma, dosed 121 weeks, study length 121 weeks): 2660 mg/kg/day
- TD50 (mouse, strain Swiss albino, females, in drinking water, site: aorta and large arteries, lesion: leiomyosarcoma, dosed 121 weeks, study length 121 weeks): 1970 mg/kg/day
- TD50 (mouse, strain Swiss albino, females, in drinking water, site: aorta and large arteries, lesion: several types, types named in the paper, dosed 121 weeks, study length 121 weeks): 1070 mg/kg/day
- TD50 (mouse, strain Swiss albino, females, in drinking water, site: lung, lesion: adenocarcinoma, dosed 121 weeks, study length 121 weeks): 11200 mg/kg/day
- TD50 (mouse, strain Swiss albino, females, in drinking water, site: lung, lesion: adenoma, dosed 121 weeks, study length 121 weeks): 1170 mg/kg/day
- TD50 (mouse, strain Swiss albino, females, in drinking water, site: lung, lesion: several types, types named in the paper, dosed 121 weeks, study length 121 weeks): 1140 mg/kg/day
- TD50 (mouse, strain Swiss albino, males, in drinking water, site: aorta and large arteries, lesion: leiomyoma, dosed 120 weeks, study length 120 weeks): 1490 mg/kg/day
- TD50 (mouse, strain Swiss albino, males, in drinking water, site: aorta and large arteries, lesion: leiomyosarcoma, dosed 120 weeks, study length 120 weeks): 609 mg/kg/day
- TD50 (mouse, strain Swiss albino, males, in drinking water, site: aorta and large arteries, lesion: several types, types named in the paper, dosed 120 weeks, study length 120 weeks): 380 mg/kg/day
- TD50 (mouse, strain Swiss albino, males, in drinking water, site: lung, lesion: adenoma, dosed 120 weeks, study length 120 weeks): 597 mg/kg/day
- TD50 (mouse, strain Swiss albino, males, in drinking water, site: lung, lesion: several types, types named in the paper, dosed 120 weeks, study length 120 weeks): 675 mg/kg/day
- carcinogen call (mouse, strain Swiss, females, by gavage, site: lung, lesion: one or several types, types not named, dosed 40 weeks, study length 55 weeks): negative (inactive)
